Data reported in US20260276626A1, “METHOD FOR SCREENING THERAPEUTIC AGENT FOR MUSCLE WEAKNESS-RELATED DISEASES” (ENCELL CO., LTD., priority 2023, published 2026).

Tests used:
Assay type in all cases: cell-based, mouse
Atrogin-1 = Atrogin-1 mRNA expression level in myotubes (qPCR); conditions: 40 μM
Description: (§1) The C2C12 mouse myoblast cell line was cultured in a culture medium containing 90% DMEM/HG, 10% fetal bovine serum (FBS), and 100 unit/ml penicillin/streptomycin at 37° C. under 5% CO2 condition.
(§2) 100,000 cells were seeded in 6-well plate. After 4 days, the medium was replaced with a differentiation medium containing 5% horse serum and 100 unit/ml penicillin/streptomycin, and 95% DMEM/HG for differentiation into myotubes at 100% confluence. Here, the date on which the culture medium was replaced with the differentiation medium was designated as day 0, and the differentiation medium was replaced with fresh differentiation medium every day from day 3 to day 5.
(§3) The medium was removed on day 5 to induce muscle atrophy and/or muscle loss, and the culture medium was treated with mitomycin C (hereinafter referred to as MMC) at concentrations of 20 μM, 40 μM, and 100 μM for 24 hours, respectively. An optical microscopic observation was used to identify changes that occurred during the process of muscle atrophy and/or muscle loss. […]
(§4) RNA was extracted from the cells using AccuPrep®Universal RNA Extraction Kit (Bioneer). CDNA was synthesized using SuperScript™ IV Reverse Transcriptase purchased from Invitrogen, and quantitative real-time polymerase chain reaction (qPCR) was performed using PowerSYBR green PCR Master Mix from Applied biosystem to confirm the mRNA expression level. […]

MuRF-1 = MuRF-1 mRNA expression level in myotubes (qPCR); conditions: 40 μM
Description: as §1, §2, §3, §4

C2C12 myotubes = experiment: Morphological changes in myotubes by optical microscopic observation
Description: as §1, §2
as §3, with “loss. After a predetermined period of time, the medium was removed, and the cells were treated with 0.25% trypsin-ethylene diamine tetra-acetic acid (EDTA, Gibco), and the cells were collected in a culture medium, followed by centrifugation at 1,500 rpm for 3 minutes.” for “loss.”

[1] = C2C12 myotubes, 24 hours, compared with 20 μM, dexamethasone 100 μM and control (FIG. 5)
[2] = serum-free medium, 24 hours (FIG. 7)

In the case of `CO[C@@]12[C@H](COC(N)=O)C3=C(C(=O)C(C)=C(N)C3=O)N1C[C@@H]1N[C@@H]12` [mitomycin C], the “mRNA expression level of Atrogin-1” value (Atrogin-1; [1]) is reported as “the highest”, the “mRNA expression level of Atrogin-1” value (Atrogin-1; [2]) is reported as “maintained in an increased state” and the “mRNA expression level of MuRF-1” value (MuRF-1; [1]) is reported as “the highest”. The “mRNA expression level of MuRF-1” value (MuRF-1; [2]) was “maintained in an increased state”, the “thickness, length, and number of myotubes” value (C2C12 myotubes; C2C12 myotubes, 40 μM or less, 24-hour treatment, vs untreated control (FIG. 4)) was “significantly reduced” and the “thickness, length, and number of myotubes” value (C2C12 myotubes; serum-free medium, 40 μM, 24 hours (FIG. 6)) was “significant decrease”.
